SMILES strings stand for the structures. pEC50: −log10 of the molar value. “Also recorded” adds a separate entry of the source. Like-named read-outs stand apart in the source and are kept apart here.

One data set has as its system HL-60 cells. Description: Differentiation of HL-60 cells (NBT reduction), 4 days. It counts as cell-based, human. The following applies: for Percentage of NBT positive cells, Exp. 1 / Percentage of NBT positive cells, Exp. 2 / Percentage of NBT positive cells, Average / pEC50: 4 days; for Percentage of NBT positive cells, Average: average of Exp. 1 and 2; for pEC50: Homo sapiens, HL-60, 96 h, NBT reduction, read-out: ED50 (concentration of compound which induced differentiation of 50% of the cells). On the procedure:
Effect of 1,25(OH)2 -16-ene-24-oxo-D3 on the Morphological Differentiation of HL-60 Cells
Tissue culture medium used was RPMI-1640 (Gibco) supplemented with glutamine, antibiotics and 20% fetal bovine serum.
1,25(OH)2 -16-ene-D3 and 1,25(OH)2 -16-ene-24-oxo-D3 were dissolved in sufficient ethanol to yield stock solutions of 1 mM. Reduced lighting was used when working with the compounds and the stock solutions were stored in the dark at -20 C. in an argon atmosphere. The stock solutions were added to flasks, which were supplemented with sufficient ethanol to achieve the final concentration of 0.1%.
A HL-60 tumor cell line was originally derived from a patient with promyelocytic leukemia and was obtained from the American Type Culture Collection (ATCC #CCL240). The cells were maintained in liquid cultures by serial passage twice weekly in the tissue culture medium. For each experimental point, cells were grown in replicate flasks. The cells were seeded at a rate of 10^6 cells per 25 cm^2 flask and grown in the presence of the compounds for a total of 4 days. Ethanol, used as the vehicle, was kept constant in all dilutions in each experiment and had no effect on the cell differentiation at the concentrations used […]. After 4 days of incubation at 37° C., cultures were evaluated for cell differentiation.
Quantitation of differentiated cells was done by the biochemical method of nitroblue tetrazolium reduction (NBT) reduction. A 1 ml aliquot of cell suspension was removed from each flask and centrifuged for 10 minutes, and resuspended in about 200 μl of a work solution. The work solution contained 100 ng of tetradecanoyl phorbol acetate per ml of NBT and was kept in a covered vial on ice. The NBT was prepared fresh on the day of enumeration to 1 mg/ml in growth medium. The cells were incubated in a 37° C. water bath for 30 minutes. An aliquot was placed into a hemocytometer and the total number of blue-black cells per approximately 200 cells was determined. The percentage of differentiated cells was then calculated.
The results are also shown as the concentration of compound which induced differentiation of 50% of the cells (ED50).

The next data set has as its system hydroxylase enzymes. The data set is described as follows: Metabolism in perfused rat kidneys. It counts as in vitro ADME. On the procedure: The compounds of formulas I and II were prepared by perfusing 1,25(OH)2 -16-ene-D3 in rat kidneys, extracting the perfusate and isolating the compounds of formulas I and II.
Crystalline 1,25(OH)2 -16-ene-D3 was synthesized as described in U.S. Pat. No. 5,087,619, which is herein incorporated by reference to the extent necessary to enable one of skill in the art to make this invention. Rat kidneys were perfused with the 1,25(OH)2 -16-ene-D3 as described in Am. J. Physiol. 1982, 243 E265-271 and in Biochemistry 1987, 26, 324-331. Cold 1,25(OH)2 -16-ene-D3 (400 nmoles) was introduced into 100 mL of perfusate and the kidney perfusion was continued for 8 hours. Lipid extraction of the final kidney perfusate was performed according to the procedure described in Can. J. Biochem. Physiol. 1959, 37, 911-917. Half of the bulk lipid extract from the final perfusate of about 100 mL was then subjected directly to high pressure liquid chromatography (HPLC) performed with a Waters Model 600 equipped with a Model 990 photo diode array detector (Waters Associates, Milford, MA). HPLC analysis was performed on the lipid extract obtained from 50 mL of perfusate under the following conditions: Zorbax-SIL column (25 cm×4.6 mm); Hexane: 2-propanol (90:10), Flow rate: 2 mL/minutes. A known amount of 25(S),26(OH)2 -D3 was added to the perfusate at the time of lipid extraction to assess extraction of vitamin D metabolites in general. Fractions of each individual metabolite from the first HPLC run was pooled and subjected to a second HPLC run using the same Zorbax-SIL column eluted with methylene chloride:2-propanol […]. Each metablite obtained from the second HPLC run was chromatographed twice using the first HPLC system. At this time, the purity of each metabolite was adequate for its structure identification process. A control perfusion was performed with cold 1,25(OH)2 -D3 in a similar fashion and the lipid extract of the final perfusate was analyzed using the same HPLC systems as above.

Take `C=C1/C(=C\C=C2/CCC[C@]3(C)C([C@H](C)CCCC(C)(C)O)=CC[C@@H]23)C[C@@H](O)C[C@@H]1O` [1,25(OH)2-16-ene-D3, 1,25-dihydroxy-16-ene-cholecalciferol]: the “Percentage of NBT positive cells, Exp. 1” value in the data set with HL-60 cells (0.001 μM) worked out at 12.0%; in the data set with HL-60 cells (0.01 μM), 30.5%; with HL-60 cells (0.1 μM), 48.0%; with HL-60 cells (1.0 μM), 62.5%. Moreover, the “Percentage of NBT positive cells, Exp. 2” value turned out to be 18.5% in the data set on HL-60 cells (0.001 μM), 47.5% in the data set with HL-60 cells (0.01 μM), 61.0% in the data set with HL-60 cells (0.1 μM) and 60.5% in the data set on HL-60 cells (1.0 μM). In addition, the “Percentage of NBT positive cells, Average” value in the data set on HL-60 cells (0.001 μM) was 15.25%; with HL-60 cells (0.01 μM), 39.0%; in the data set with HL-60 cells (0.1 μM), 54.5%; with HL-60 cells (1.0 μM) it was 61.5%. Also, the pEC50 in the data set on HL-60 cells is 7.10. Further, in the data set with hydroxylase enzymes (400 nmoles in 100 mL perfusate, 8 hours), the “metabolism (in words)” value was “metabolized mainly into two metabolites”.
For the compound `C=C1/C(=C\C=C2/CCC[C@]3(C)C([C@H](C)CCC(=O)C(C)(C)O)=CC[C@@H]23)C[C@@H](O)C[C@@H]1O` [1,25(OH)2-16-ene-24-oxo-D3, 1,25-dihydroxy-16-ene-24-oxo-cholecalciferol], the “differentiation of HL-60 / human promyelocytic cells (in words)” value is recorded as “induced differentiation of human promyelocytic cells; also recorded: stimulates differentiation of HL-60 cells” with HL-60 cells and “stimulate differentiation of HL-60 cells” in the data set with HL-60 cells (listed as I). In addition, the “Percentage of NBT positive cells, Exp. 1” value in the data set on HL-60 cells (0.001 μM) was found to be 8.0%; in the data set with HL-60 cells (0.01 μM), 47.0%; with HL-60 cells (0.1 μM), 55.0%; with HL-60 cells (1.0 μM) it was 69.0%. Further, the “Percentage of NBT positive cells, Exp. 2” value is recorded as 24.5% with HL-60 cells (0.001 μM), 35.5% in the data set with HL-60 cells (0.01 μM), 60.0% in the data set on HL-60 cells (0.1 μM) and 70.0% in the data set with HL-60 cells (1.0 μM). Moreover, the “Percentage of NBT positive cells, Average” value in the data set with HL-60 cells (0.001 μM) stood at 16.25%; in the data set on HL-60 cells (0.01 μM), 41.25%; in the data set with HL-60 cells (0.1 μM) it was 57.5%; in the data set with HL-60 cells (1.0 μM), 69.5%. Also, in the data set on HL-60 cells, the pEC50 is 7.46. In addition, the “potency relative to the parent compound (in words)” value with HL-60 cells (versus 1,25(OH)2 -16-ene-D3) is listed as “greater than that of the parent compound”. Also, the “resistance to further hydroxylation (in words)” value with hydroxylase enzymes (rat kidney perfusion) is recorded as “resisted further hydroxylation from other hydroxylase enzymes”.

Source of the values: patent US5401733A, “Stable and active metabolites of 1,25-dihydroxy-16-ene-cholecalciferol” (Hoffmann-La Roche Inc., priority 1993, dated 1995).
